Data reported in ChEMBL document CHEMBL1125576, “alpha-Keto amide inhibitors of aminopeptidases” (J Med Chem, 1992).
pKi: −log10 of the molar value.

Legend:
Aminopeptidase N [1] = target: T1, Aminopeptidase N (Homo sapiens, UniProt P15144); test: Compound was tested for binding affinity towards microsomal aminopeptidase
Aminopeptidase B = Aminopeptidase B (Homo sapiens, UniProt Q9H4A4); test: Compound was tested for binding affinity towards arginyl aminopeptidase
Aminopeptidase N [2] = target: T1, Aminopeptidase N; test: Compound was tested for binding affinity towards microsomal aminopeptidase; Kis was reported
Aminopeptidase N [3] = target: T1, Aminopeptidase N; test: Compound was tested for binding affinity towards microsomal aminopeptidase; Kii was reported

T1 sequence (P15144 whole entry): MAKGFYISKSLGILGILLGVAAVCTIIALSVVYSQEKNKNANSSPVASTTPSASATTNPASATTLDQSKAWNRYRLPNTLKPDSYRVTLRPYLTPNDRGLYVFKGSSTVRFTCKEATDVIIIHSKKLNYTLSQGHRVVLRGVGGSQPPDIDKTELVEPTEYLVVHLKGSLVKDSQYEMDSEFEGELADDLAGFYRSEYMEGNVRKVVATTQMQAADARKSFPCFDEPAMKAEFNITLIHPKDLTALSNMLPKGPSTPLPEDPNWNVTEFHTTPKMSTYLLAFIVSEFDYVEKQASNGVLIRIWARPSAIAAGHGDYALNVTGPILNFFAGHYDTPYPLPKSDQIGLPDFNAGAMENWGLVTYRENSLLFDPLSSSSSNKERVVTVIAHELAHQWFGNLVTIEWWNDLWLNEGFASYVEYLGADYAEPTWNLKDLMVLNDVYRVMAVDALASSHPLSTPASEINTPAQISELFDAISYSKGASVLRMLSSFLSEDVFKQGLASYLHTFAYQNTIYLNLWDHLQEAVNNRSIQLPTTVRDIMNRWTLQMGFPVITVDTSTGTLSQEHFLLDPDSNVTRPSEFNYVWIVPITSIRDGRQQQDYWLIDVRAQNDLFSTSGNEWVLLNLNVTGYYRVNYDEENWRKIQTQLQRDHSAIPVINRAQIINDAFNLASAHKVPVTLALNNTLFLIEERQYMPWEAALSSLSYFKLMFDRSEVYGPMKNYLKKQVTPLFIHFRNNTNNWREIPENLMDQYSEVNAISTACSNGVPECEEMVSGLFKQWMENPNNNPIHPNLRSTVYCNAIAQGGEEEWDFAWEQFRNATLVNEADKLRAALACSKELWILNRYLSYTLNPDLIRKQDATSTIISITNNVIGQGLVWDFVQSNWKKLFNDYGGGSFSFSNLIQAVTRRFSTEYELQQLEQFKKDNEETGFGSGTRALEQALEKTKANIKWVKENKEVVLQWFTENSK
Aminopeptidase B, sequence (Q9H4A4 whole entry): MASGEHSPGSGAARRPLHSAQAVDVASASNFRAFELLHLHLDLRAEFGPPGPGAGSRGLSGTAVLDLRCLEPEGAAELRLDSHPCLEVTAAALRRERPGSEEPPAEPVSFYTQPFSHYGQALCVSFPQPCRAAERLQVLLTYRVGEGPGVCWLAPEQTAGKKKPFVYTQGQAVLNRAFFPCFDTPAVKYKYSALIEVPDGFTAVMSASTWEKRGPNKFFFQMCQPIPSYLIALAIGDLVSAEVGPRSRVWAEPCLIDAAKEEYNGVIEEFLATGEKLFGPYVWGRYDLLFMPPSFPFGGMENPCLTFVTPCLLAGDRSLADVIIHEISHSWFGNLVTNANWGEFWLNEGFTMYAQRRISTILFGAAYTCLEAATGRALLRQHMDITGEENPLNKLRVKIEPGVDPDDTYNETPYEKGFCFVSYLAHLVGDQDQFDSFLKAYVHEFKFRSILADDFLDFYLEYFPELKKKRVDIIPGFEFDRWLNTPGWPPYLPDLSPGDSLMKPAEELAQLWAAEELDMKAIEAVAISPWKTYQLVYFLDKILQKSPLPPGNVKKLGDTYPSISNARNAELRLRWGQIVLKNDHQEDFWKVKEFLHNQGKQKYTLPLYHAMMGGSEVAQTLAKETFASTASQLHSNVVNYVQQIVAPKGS

Row | SMILES | pKi (Aminopeptidase N [1]) | pKi (Aminopeptidase B) | pKi (Aminopeptidase N [2]) | pKi (Aminopeptidase N [3])
1 | CC(=O)[C@@H](N)CC(C)C | 3.37 | < 3.00 | – | –
2 | CC(C)C[C@H](N)C(=O)CC(C)C(=O)O (stereo partly drawn) | – | 3.89 | 3.18 | 3.03
3 | CC(C)C[C@H](N)C(=O)CC(Cc1ccccc1)C(=O)O (stereo partly drawn) | – | 6.77 | 4.10 | 3.59
4 | CC(C)CCNC(=O)C(=O)[C@@H](N)CC(C)C | 4.98 | 5.49 | – | –

Now from value to compound:

Row | pKi (Aminopeptidase N [1]) | pKi (Aminopeptidase B) | pKi (Aminopeptidase N [2]) | pKi (Aminopeptidase N [3]) | SMILES
5 | 5.60 | 5.82 | – | – | CC(C)CCNC(=O)C(=O)C(N)Cc1ccccc1 (stereo not drawn)
6 | 4.62 | < 3.52 | – | – | CC(C)CCNC(=O)[C@@H](O)[C@H](N)CC(C)C
7 | 4.70 | 4.41 | – | – | CC(C)CCNC(=O)[C@@H](O)[C@H](N)Cc1ccccc1
8 | 4.74 | 5.19 | – | – | CC(C)CCNC(=O)C(=O)[C@H](N)CC(C)C
